In the assay the target is IRE1α (Homo sapiens, UniProt O75460). The assay can be described thus: fluorescent XBP1 mini-substrate RNase assay with recombinant IRE1α*. It is filed as biochemical.

Consider one molecule from paper PMC5497784 (Cell metabolism, 2017).

Usually IC50 stands for the point on the concentration scale where inhibition reaches its midpoint.

IRE1α, sequence (O75460 469-977): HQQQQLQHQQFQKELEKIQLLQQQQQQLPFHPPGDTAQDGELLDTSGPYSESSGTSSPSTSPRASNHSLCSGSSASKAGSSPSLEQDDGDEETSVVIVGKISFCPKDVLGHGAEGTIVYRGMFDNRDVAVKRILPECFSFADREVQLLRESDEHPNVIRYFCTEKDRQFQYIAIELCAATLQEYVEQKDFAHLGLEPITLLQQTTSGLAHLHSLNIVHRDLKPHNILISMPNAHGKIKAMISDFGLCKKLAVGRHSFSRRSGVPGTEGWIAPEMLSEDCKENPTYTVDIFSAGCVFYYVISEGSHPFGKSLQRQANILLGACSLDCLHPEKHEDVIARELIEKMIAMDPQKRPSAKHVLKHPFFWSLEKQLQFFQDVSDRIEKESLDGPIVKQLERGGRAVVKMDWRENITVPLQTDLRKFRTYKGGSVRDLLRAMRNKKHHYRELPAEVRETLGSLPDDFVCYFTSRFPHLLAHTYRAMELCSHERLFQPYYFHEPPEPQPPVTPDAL

For `CC(C)(C)c1nc(-c2ccc(NC(=O)Nc3cccc(C(F)(F)F)c3)c3ccccc23)c2c(N)nccn12` [KIRA6, 1-(4-(8-amino-3-tert-butylimidazo[1,5-a]pyrazin-1-yl)naphthalen-1-yl)-3-(3-(trifluoromethyl)phenyl)urea], the IC50 amounted to 40.1 nM.
